System: rat collagen-induced arthritis model
Assay: Edema suppressing effect in both hindlimbs in rat collagen-induced arthritis model (Edema Index)
Type: in vivo, rat (female Lewis, LEW/Crj)
Set-up: Edema Index: unit not given here
Conditions: sole administration; for Relative index: Edema Index relative to control group; for Relative index / Decrease rate (%) / Edema Index: oral; for Decrease rate (%): of Edema Index vs control group; for Edema Index: mean ± SE
Method: Female Lewis rats (LEW/Crj) (obtained from Charles River Laboratories Japan, Inc.) were used as test animals.
This Pre value was used as an index to divide the rats into groups by one-parameter-based block randomization, so that the values in the respective groups averaged out.
The collagen emulsion for sensitization used to induce arthritis in rats was prepared by homogenizing 0.3% Type II collagen liquid (manufactured by Collagen Research Center), Adjuvant Peptide (manufactured by Peptide Institute, Inc.) and Adjuvant Incomplete Freund (manufactured by DIFCO), using a Handy Micro Homogenizer (manufactured by Microtec Nition) under ice-cooling. The collagen emulsion thus prepared was intracutaneously administered at 10 sites in the back of each rat at a dose of 0.1 mL/site, to perform initial sensitization of the rat. Seven days after initial sensitization, 0.12 mL of the same collagen emulsion was intracutaneously administered to the tail head of each rat, to perform booster sensitization.
Drug administration was conducted from the day after the initial sensitization through 18 days thereafter. Drug A and Drugs B-1, B-2 and B-4 were all orally administered two times a day, in the morning (9:00 to 11:00 AM) and in the evening (15:30 to 17:30 PM). Drug B-3 was orally administered once a day, around noon (11:30 AM to 13:30 PM).
14 Days and 18 days after the initial sensitization, respectively, the hindlimbs volume was measured again for each rat, and the difference between each of the values and the Pre value was determined to calculate the edema volume for both hindlimbs. The sum of the edema volumes for both hindlimbs measured 14 days and 18 days after the initial sensitization was calculated as the Edema Index, and this was taken as an index for the effect of the drug.
The Edema Index is represented by an average value±standard error for 8 rats in each group. Also, the decrease rate is represented by the formula: ((X−Y)/X)×100 (wherein X: average value of Edema Index for the control group, Y: average value of Edema Index for each group).

Row | Structure (SMILES) | Relative index (10 mg/kg, two times a day) | Decrease rate (%) (10 mg/kg, two times a day) | Edema Index (10 mg/kg, two times a day) | Relative index (1 mg/kg, two times a day) | Decrease rate (%) (1 mg/kg, two times a day) | Edema Index (1 mg/kg, two times a day) | Relative index (0.2 mg/kg, once a day) | Decrease rate (%) (0.2 mg/kg, once a day) | Edema Index (0.2 mg/kg, once a day) | Relative index (3 mg/kg, two times a day) | Decrease rate (%) (3 mg/kg, two times a day) | Decrease rate of Edema Index vs control group (%) (3 mg/kg) | Edema Index (3 mg/kg, two times a day, through 18 days after initial sensitization, sum of edema volumes of both hindlimbs at days 14 and 18) | Decrease rate of Edema Index vs control group (%) (10 mg/kg)
1 | CSc1ccc(-c2nn(Cc3ccccc3)c(=O)cc2-c2ccc(Cl)cc2)cc1 [Drug A, 2-benzyl-5-(4-chlorophenyl)-6-[4-(methylthio)phenyl]-2H-pyridazin-3-one] | 0.81 | 19 | 2.93 ± 0.22 | – | – | – | – | – | – | – | – | – | – | –
2 | O=C(O)Cc1ccccc1Nc1c(Cl)cccc1Cl [Drug B-1, diclofenac sodium] | – | – | – | 0.33 | 67 | 1.20 ± 0.26 | – | – | – | – | – | – | – | –
3 | Cc1cnc(NC(=O)C2=C(O)c3ccccc3S(=O)(=O)N2C)s1 [Drug B-3, meloxicam] | – | – | – | – | – | – | 0.58 | 42 | 2.04 ± 0.10 | – | – | – | – | –
4 | Cc1ccc(-c2cc(C(F)(F)F)nn2-c2ccc(S(N)(=O)=O)cc2)cc1 [Drug B-4, celecoxib] | 0.46 | 54 | 1.86 ± 0.19 | 0.70 | 30 | 3.41 ± 0.16 | – | – | – | 0.61 | 39 | 39 | 2.46 ± 0.22 | 54
